Measured values reported in US11542259B2, “Compounds for the treatment of kinase-dependent disorders” (Exelixis, Inc., priority 2018, dated 2023).

Assays:
[1] = molecular target: Human Axl (residues H473-A894 with Q764R) (Homo sapiens (Human), UniProt P30530, Q764R); assay: Human AXL kinase assay (33P radiometric, KinaseProfiler); assay type: biochemical; conditions: 10 μM ATP
[2] = molecular target: AXL (Homo sapiens (Human), UniProt P30530); assay: AXL autophosphorylation ELISA in A-172 cells; assay type: cell-based; conditions: cellular, Gas6 stimulated
In short: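 Serum-starved (24 h) A-172 glioblastoma cells pretreated 1 h with compounds (8-point curve, 0.3% DMSO), then stimulated 15 min with 1 μg/mL Gas6. Lysate phospho-AXL measured by sandwich ELISA against a phospho-AXL standard; IC50 from 4-parameter logistic fit between DMSO and reference-inhibitor controls.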

[3] = molecular target: Mer (Homo sapiens (Human), UniProt Q12866); assay: Mer autophosphorylation ELISA in transient transfected 293A cells; assay type: cell-based; conditions: cellular, MERTK transfected 293A cells
In short: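 293A cells transiently transfected with human MERTK DNA, then treated 1 h with 8-point compound dilutions in serum-free medium (0.3% DMSO). Phospho-Mer in lysates quantified by sandwich ELISA against phospho-Mer standard; normalised to DMSO (100%) and reference inhibitor (0%), IC50 from 4-parameter logistic fit.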

[4] = molecular target: Human Met (residues R974-S1390 with A1209G and V1290L) (Homo sapiens, UniProt P08581); assay: Human Met kinase assay (33P radiometric, KinaseProfiler); assay type: biochemical; conditions: 10 μM ATP, read-out: c-Met IC50

Chain of AXL (P30530 26-894): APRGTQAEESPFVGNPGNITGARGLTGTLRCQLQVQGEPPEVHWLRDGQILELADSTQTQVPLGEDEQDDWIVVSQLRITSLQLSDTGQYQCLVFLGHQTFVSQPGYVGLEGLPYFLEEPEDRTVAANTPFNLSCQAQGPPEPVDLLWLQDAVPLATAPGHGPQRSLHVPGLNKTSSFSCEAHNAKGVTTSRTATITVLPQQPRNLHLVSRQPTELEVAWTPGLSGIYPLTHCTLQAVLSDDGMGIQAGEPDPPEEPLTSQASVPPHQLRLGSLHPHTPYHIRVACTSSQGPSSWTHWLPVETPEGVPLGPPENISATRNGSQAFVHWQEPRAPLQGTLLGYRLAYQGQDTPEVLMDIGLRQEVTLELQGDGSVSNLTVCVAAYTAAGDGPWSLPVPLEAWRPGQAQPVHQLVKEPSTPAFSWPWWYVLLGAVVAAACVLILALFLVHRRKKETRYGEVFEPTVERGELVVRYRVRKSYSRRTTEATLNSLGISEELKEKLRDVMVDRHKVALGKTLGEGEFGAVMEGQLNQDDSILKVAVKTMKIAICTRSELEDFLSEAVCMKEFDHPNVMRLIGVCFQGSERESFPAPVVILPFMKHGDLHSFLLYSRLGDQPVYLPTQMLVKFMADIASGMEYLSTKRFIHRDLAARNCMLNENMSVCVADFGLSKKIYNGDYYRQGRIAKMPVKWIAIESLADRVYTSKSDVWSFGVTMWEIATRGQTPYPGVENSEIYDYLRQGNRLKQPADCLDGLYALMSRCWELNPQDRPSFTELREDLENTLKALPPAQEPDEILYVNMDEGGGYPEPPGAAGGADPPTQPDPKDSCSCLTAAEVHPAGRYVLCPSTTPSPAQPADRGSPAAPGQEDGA
Chain of Human Axl (residues H473-A894 with Q764R) (P30530 473-894 Q764R): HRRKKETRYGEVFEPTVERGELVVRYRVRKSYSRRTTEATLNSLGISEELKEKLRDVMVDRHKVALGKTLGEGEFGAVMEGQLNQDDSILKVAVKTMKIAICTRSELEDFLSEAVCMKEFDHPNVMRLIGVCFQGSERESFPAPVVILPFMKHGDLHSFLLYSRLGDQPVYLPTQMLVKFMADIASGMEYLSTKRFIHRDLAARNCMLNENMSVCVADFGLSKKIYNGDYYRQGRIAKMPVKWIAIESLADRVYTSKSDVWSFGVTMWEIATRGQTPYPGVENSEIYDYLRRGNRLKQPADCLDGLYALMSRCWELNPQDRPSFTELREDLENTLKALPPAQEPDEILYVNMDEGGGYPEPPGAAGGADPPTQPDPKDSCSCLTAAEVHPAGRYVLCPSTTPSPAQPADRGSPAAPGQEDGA
Chain of Mer (Q12866 21-999): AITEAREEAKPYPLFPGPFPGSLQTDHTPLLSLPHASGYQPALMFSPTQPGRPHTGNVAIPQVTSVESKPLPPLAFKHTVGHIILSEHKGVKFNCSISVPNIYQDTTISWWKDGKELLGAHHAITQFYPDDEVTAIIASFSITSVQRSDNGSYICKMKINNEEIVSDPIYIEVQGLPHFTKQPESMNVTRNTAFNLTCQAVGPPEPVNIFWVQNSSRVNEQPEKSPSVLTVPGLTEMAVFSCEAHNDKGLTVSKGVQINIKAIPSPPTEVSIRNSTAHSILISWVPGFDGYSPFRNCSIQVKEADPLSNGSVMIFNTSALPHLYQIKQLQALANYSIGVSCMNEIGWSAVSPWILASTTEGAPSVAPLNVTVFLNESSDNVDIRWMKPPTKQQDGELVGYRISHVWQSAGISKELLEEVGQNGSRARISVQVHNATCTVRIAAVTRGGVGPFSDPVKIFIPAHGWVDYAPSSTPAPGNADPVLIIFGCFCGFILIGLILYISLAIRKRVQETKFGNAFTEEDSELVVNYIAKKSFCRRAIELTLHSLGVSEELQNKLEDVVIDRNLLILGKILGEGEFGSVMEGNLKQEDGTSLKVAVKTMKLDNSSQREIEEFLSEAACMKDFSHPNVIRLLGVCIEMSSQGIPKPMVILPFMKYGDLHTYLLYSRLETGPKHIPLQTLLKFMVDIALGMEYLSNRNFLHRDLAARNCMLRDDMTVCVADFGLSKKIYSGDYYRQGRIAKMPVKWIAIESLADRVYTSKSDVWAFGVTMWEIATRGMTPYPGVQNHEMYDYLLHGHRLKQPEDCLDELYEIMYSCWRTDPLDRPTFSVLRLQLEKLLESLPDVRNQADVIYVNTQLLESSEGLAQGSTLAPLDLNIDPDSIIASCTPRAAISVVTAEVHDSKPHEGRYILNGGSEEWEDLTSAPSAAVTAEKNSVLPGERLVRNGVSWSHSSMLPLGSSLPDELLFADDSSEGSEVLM

IC50 [1] | IC50 [2] | IC50 [3] | IC50 [4] | Compound
≤ 10 nM | ≤ 10 nM | ≤ 10 nM | ≤ 10 nM | COc1cc2nccc(Oc3ccc(NC(=O)C4(C(=O)Nc5ccc(F)cc5)CC4)cc3F)c2cc1C(N)=O [Compound 133, 1-N′-[4-(6-carbamoyl-7-methoxyquinolin-4-yl)oxy-3-fluorophenyl]-1-N-(4-fluorophenyl)cyclopropane-1,1-dicarboxamide]
≤ 10 nM | ≤ 10 nM | ≤ 10 nM | ≤ 10 nM | CNC(=O)c1cc2c(Oc3ccc(NC(=O)C4(C(=O)Nc5ccc(F)cc5)CC4)cc3Cl)ccnc2cc1OC [Compound 134, 1-N′-[3-chloro-4-[7-methoxy-6-(methylcarbamoyl)quinolin-4-yl]oxyphenyl]-1-N-(4-fluorophenyl)cyclopropane-1,1-dicarboxamide]
≤ 10 nM | ≤ 10 nM | ≤ 10 nM | ≤ 10 nM | CNC(=O)c1cc2c(Oc3ccc(NC(=O)C4(C(=O)Nc5ccc(F)cc5)CC4)cc3F)ccnc2cc1OC [Compound 135, 1-N′-[3-fluoro-4-[7-methoxy-6-(methylcarbamoyl)quinolin-4-yl]oxyphenyl]-1-N-(4-fluorophenyl)cyclopropane-1,1-dicarboxamide]
≤ 10 nM | 10 to 100 nM | 10 to 100 nM | ≤ 10 nM | Cc1cc2c(Oc3ccc(NC(=O)C4(C(=O)Nc5ccc(F)cc5)CC4)cc3)ccnc2cc1C(N)=O [Compound 142, 1-N-[4-(7-carbamoyl-6-methylquinolin-4-yl)oxyphenyl]-1-N′-(4-fluorophenyl)cyclopropane-1,1-dicarboxamide]
≤ 10 nM | ≤ 10 nM | 10 to 100 nM | ≤ 10 nM | NC(=O)c1ccc2c(Oc3ccc(NC(=O)C4(C(=O)Nc5ccc(F)cc5)CC4)cc3)ccnc2c1 [Compound 164, 1-N-[4-(7-carbamoylquinolin-4-yl)oxyphenyl]-1-N′-(4-fluorophenyl)cyclopropane-1,1-dicarboxamide]
≤ 10 nM | 10 to 100 nM | 10 to 100 nM | ≤ 10 nM | CNC(=O)c1ccc2c(Oc3ccc(NC(=O)C4(C(=O)Nc5ccc(F)cc5)CC4)cc3)ccnc2c1 [Compound 165, 1-N′-(4-fluorophenyl)-1-N-[4-[7-(methylcarbamoyl)quinolin-4-yl]oxyphenyl]cyclopropane-1,1-dicarboxamide]
10 to 100 nM | ≤ 10 nM | ≤ 10 nM | ≤ 10 nM | COc1cc2nccc(Oc3ccc(NC(=O)C4(C(=O)Nc5ccc(F)cc5)CC4)cc3)c2cc1-c1cnn(C)c1 [Compound 182, 1-N′-(4-fluorophenyl)-1-N-[4-[7-methoxy-6-(1-methylpyrazol-4-yl)quinolin-4-yl]oxyphenyl]cyclopropane-1,1-dicarboxamide]
10 to 100 nM | 10 to 100 nM | ≤ 10 nM | ≤ 10 nM | COc1cc2nccc(Oc3ccc(NC(=O)C4(C(=O)Nc5ccc(F)cc5)CC4)cc3)c2cc1-c1ccn[nH]1 [Compound 185, 1-N′-(4-fluorophenyl)-1-N-[4-[7-methoxy-6-(1H-pyrazol-5-yl)quinolin-4-yl]oxyphenyl]cyclopropane-1,1-dicarboxamide]
≤ 10 nM | ≤ 10 nM | 10 to 100 nM | ≤ 10 nM | COc1cc2nccc(Oc3ccc(NC(=O)C4(C(=O)Nc5ccc(F)cc5)CC4)cc3)c2cc1S(N)(=O)=O [Compound 206, 1-N′-(4-Fluorophenyl)-1-N-[4-(7-methoxy-6-sulfamoylquinolin-4-yl)oxyphenyl]cyclopropane-1,1-dicarboxamide]
≤ 10 nM | ≤ 10 nM | ≤ 10 nM | ≤ 10 nM | COc1cc2nccc(Oc3ccc(NC(=O)C4(C(=O)Nc5ccc(F)cc5)CC4)cc3)c2cc1-c1nnco1 [Compound 220, 1-N′-(4-Fluorophenyl)-1-N-[4-[7-methoxy-6-(1,3,4-oxadiazol-2-yl)quinolin-4-yl]oxyphenyl]cyclopropane-1,1-dicarboxamide]
